Assay results from patent US20250189527A1, “COMPOSITIONS AND METHODS FOR DETECTING, PREDICTING RISK OF DEVELOPING, AND TREATING LEPTOMENINGEAL DISEASE” (Duke University, priority 2022, published 2025).

Legend:
EO-LM2 cells [1] = experiment: Intravital microscopy of EO-LM2 cells in the LM of vehicle vs. PLX5622-treated mice; type: in vivo, mouse
Procedure: (§1) PLX5622 (ChemGood) was formulated into AIN-76A rodent chow at 1200 mg kg^−1 by Research Diets Inc. Formulated chow was irradiated prior to administration. CSF1R-GFP (MacGreen) mice were given AIN-76A±PLX5622 for three days prior to engraftment and continued to feed on formulated or control chow for the duration of the study.
Mice were anaesthetized using isoflurane and the cortical bone was exposed following a sagittal incision in the scalp. The head of the mouse was secured using a stereotactic apparatus. A micromotor high-speed drill (Stoelting) with a carbide 0.75-mm drill bit (Stoelting) was used to thin the skull immediately to the left of the sagittal suture and centered between the coronal suture and the lambdoid suture. The skull-thinned region was circular and approximately 1 mm in diameter and the thinning continued until the meningeal vessels were visible under a dissecting microscope and the remaining bone was about 50 μm thin. PBS was used to clean the surgical site and dissipate heat every 15 sec. High-resolution images of the leptomeninges were obtained through the skull thinned window using a Leica SP8 confocal and multiphoton microscope with a 25× water immersion lens. […]
(§2) Intravital and whole mount images were imported into ImageJ for quantification. […] Tissue bordered were then traced and the mean tdT signal was measured over total tissue area.

EO-LM2 cells [2] = experiment: Time to LMD progression (HLP score of 0.5) in EO-LM2-engrafted mice, vehicle vs. PLX5622; type: in vivo, mouse; details: PLX5622 chow 1200 mg kg^−1 from three days prior to engraftment, P=0.0002
Source text: (§3) FIG. 11A-Q: Meningeal macrophages promote BCC survival through GDNF/NCAM signaling. a, Volcano plot of differentially expressed genes in EO-LM2 vs. −P cells. b, Ncam1 mean fluorescence intensity (MFI) by flow cytometry. n=3 biological replicates. Two-sided, unpaired Student's t-test. c, Representative intravital microscopy (IVM) and quantification of EO-LM2 vs. −NCAM1KO cells in the LM of mice on day 3 post-engraftment. n=3 mice. Two-sided, unpaired Student's t-test. d, Hindlimb paralysis (HLP) incidence and representative brain section H&E of paired EO-LM2 vs. −NCAM1KO mice euthanized when either reached a clinical endpoint (EP). n=5 mice. […] Arrows=CSFIR+ cells (green). n=3 mice; n=18-43 cells quantified/mouse. […] Arrowheads=tdT+1833 cells. i, Flow cytometry quantification of GDNF expression in cells isolated from meninges of EO-LM2 mice. n=3 biological replicates. […] Two-sided, unpaired Student's t-test. m, Representative 3D IVM images of EO-LM2 cells (red, arrowheads) co-localizing with CSF1R+ cells (green) surrounding LM vessels (white) in veh. vs. PLX5622-treated mice on day 3 or 10 post-engraftment. n, Quantification of EO-LM2 and CSF1R co-localizing (co-loc.) or non-co-localizing (no-coloc.) cells in the LM of mice in (m). n−3 mice. […]

CSF1R+ cells [3] = details: systemic (non-CNS) populations; cited from earlier work
CSF1R+ cells [4] = experiment: Depletion of CSF1R+ cells in CSF1R-GFP reporter mice fed PLX5622 chow (whole mount and intravital imaging); type: in vivo, mouse; details: 1200 mg kg^−1 in AIN-76A rodent chow for three days; brain parenchyma and LM
Procedure: FIG. 16A-E: Meningeal macrophages co-localize with EO-LM2 cells and are depleted with the CSF1R inhibitor, PLX5622. a, Confocal intravital microscopy (IVM) of the brain leptomeninges (LM) showing tdTomato+EO-LM2 cells co-localizing with CSF1R+ myeloid cells in the perivascular space of LM vessels (white). Scale bar=[…]. b, Representative whole mount (brain parenchyma) and IVM (LM) images of CSF1R-GFP reporter mice treated with either control or PLX5622 (1200 mg kg^−1) formulated AIN-76A rodent chow for three days. CSF1R+ cells=green. Vessels=white. c, Quantification of the number of CSF1R+ cells per imaging field of view of mice in (b). Three 10× field of view images acquired per mouse. Unpaired, two-sided Student's t-test. n=3 mice per group. ***P=0.0001. ****P<0.0001. s.e.m. d, Dosing Strategy for experiment in FIG. 11k,l. e, Dosing strategy for experiment in FIG. 11m,n.
as §1, with “study. […]” for “study.”
as §2

GDNF = GDNF immunofluorescence on meninges cytospins from EO-LM2-engrafted CSF1R-GFP mice; type: in vivo, mouse; details: meninges cytospin at endpoint, veh. vs. PLX5622-treated EO-LM2 mice; P=0.0232
Source text: The mouse meninges were isolated as described by Louveau et al (Louveau, A., Filiano, A. J. & Kipnis, J. Meningeal whole mount preparation and characterization of neural cells by flow cytometry. Current protocols in immunology 121, e50-e50 (2018)). Briefly, the skull cap was removed and placed in a cold PBS bath under a dissecting microscope. Using fine forceps, the meninges were carefully peeled off the skull. Any remaining meninges on the brain surface were carefully removed with fine forceps while limiting the removal of residual brain parenchyma. The meninges were digested for 45 min at 37° C. in digest buffer (1×HBSS with calcium and magnesium (Corning), 5% FBS, 10 mM HEPES, DNase (Sigma Aldrich, 20 U mL^−1), Liberase DL (Sigma Aldrich, 10 mg mL^−1), Liberase TL (Sigma Aldrich, 10 mg mL^−1)) and lightly shaken every 10 min. The digested solution was then passed through a 70-μm cell strainer and a rubber syringe pump was used to gently push through any undigested tissue. […]
Glass 96-well plates were coated with 100 μL of poly-D-lysine (Sigma Aldrich, 0.1 mg mL^−1) in water at room temperature for 1 h and then washed three times with sterile PBS and allowed to air dry for 15 min in a tissue culture hood. […] ImageJ was used to quantify raw integrated pixel density per cell.

EO-LM2 cells [5] = experiment: Intracerebroventricular (ICV) GDNF rescue experiment in tumored, CSF1R-depleted mice; type: in vivo, mouse; details: intraventricular GDNF vs. veh. ICV in PLX5622-treated tumored mice; P=0.0002
Source text: as §3

1833 cells = experiment: GDNF glucose starvation assay, 1833 cells; type: cell-based, human; details: glucose free media+1% FBS, GDNF 100 ng mL^−1, 48 h, P=0.0203 vs. vehicle/isotype
Procedure: (§4) 1×10^5 1833 or EO-LM2 cells were seeded in glucose free or complete media+1% FBS in a 12-well plate. The cells were treated with recombinant human/mouse GDNF (PeproTech, 100 ng mL^−1) or vehicle (0.1% BSA in water) and anti-CD49f neutralizing antibody (Invitrogen, 2.5 μg mL^−1) or isotype control. The cells were incubated at 37° C. and 5% CO2 for 24 h (EO-LM2) or 48 h (1833) and then trypsinized and counted with a hemacytometer. The number of live cells in the glucose deprived conditions were then divided by the number of cells in the glucose complete condition to determine the percent of cells alive after glucose deprivation.

EO-LM2 cells [6] = experiment: GDNF glucose starvation assay, EO-LM2 cells; type: cell-based, mouse; details: glucose free media+1% FBS, GDNF 100 ng mL^−1, 24 h, P=0.0120 vs. vehicle/isotype
Procedure: as §4

For `COc1ncc(F)cc1CNc1ccc(Cc2c[nH]c3ncc(C)cc23)c(F)n1` [PLX5622], the “initial BCC invasion of the LM” value (EO-LM2 cells [1]; day 3 post-engraftment, veh. vs. PLX5622) was “did not affect”, the “subsequent BCC expansion within the LM” value (EO-LM2 cells [1]; day 10 post-engraftment, veh. vs. PLX5622, P<0.0001) was “did prevent” and the “time to LMD progression (time to HLP score of 0.5)” value (EO-LM2 cells [2]) was “substantially prolonged”. For the same molecule, the “effects on systemic CSF1R+ populations” value (CSF1R+ cells [3]) was “modest effects”, the “depletion of CSF1R+ cells from the CNS” value (CSF1R+ cells [4]) was “dramatically depletes” and the “LM cells expressing GDNF” value (GDNF) was “dramatic decrease”.

B1: Recombinant GDNF: recombinant human/mouse glial cell line-derived neurotrophic factor (PeproTech) (protein, UniProt P39905 78-211, looked up)
Glial cell line-derived …: SPDKQMAVLPRRERNRQAAAANPENSRGKGRRGQRGKNRGCVLTAIHLNVTDLGLGYETKEELIFRYCSGSCDAAETTYDKILKNLSRNRRLVSDKVGQACCRPIAFDDDLSFLDDNLVYHILRKHSAKRCGCI
In the case of B1, the “LMD progression (time to HLP score of 0.5)” value (EO-LM2 cells [5]) is reported as “accelerated LMD progression”, the “protection from cell death in low glucose conditions (percent live cells after glucose deprivation)” value (1833 cells) is reported as “marked protection from cell death” and the “protection from cell death in low glucose conditions (percent live cells after glucose deprivation)” value (EO-LM2 cells [6]) is reported as “marked protection from cell death”.
